Source: article PMC3185571 (Viruses, 2010)
Where two headings read alike, the source gives them in different places.

How the values were obtained:
[1] = target: neuraminidase of A/Washington/10/2008, A (H1N1) Seasonal, WT (Influenza A virus, UniProt G3LYQ1); assay type: biochemical
[2] = target: neuraminidase of A/Florida/21/2008, A (H1N1) Seasonal, H275Y (Influenza A virus, UniProt G3LYQ1, H275Y); assay type: biochemical
[3] = target: neuraminidase of A/Washington/01/2007, A (H3N2) Seasonal, WT (Influenza A virus, UniProt A7UPN3); test: biochemical
[4] = target: neuraminidase of A/Texas/12/2007, A (H3N2) Seasonal, E119V (Influenza A virus, UniProt D1FVK3, I119V); test: biochemical
[5] = target: neuraminidase of B/Memphis/20/1996, B Seasonal, WT (Influenza B virus, UniProt C7FPS7); assay type: biochemical
[6] = target: neuraminidase of B/Memphis/20/1996, B Seasonal, R152K (Influenza B virus, UniProt R4KWM8, R150K); assay type: biochemical
[7] = target: neuraminidase of A/California/07/2009, H1N1 Pandemic, WT (Influenza A virus (A/California/07/2009(H1N1)), UniProt C7FH46); assay type: biochemical, 2009 pandemic H1N1 influenza virus
[8] = target: neuraminidase of A/Texas/48/2009, H1N1 Pandemic, H275Y (Influenza A virus, UniProt C6KP13, H275Y); assay type: biochemical, 2009 pandemic H1N1 influenza virus
[9] = target: neuraminidase of seasonal influenza A(H1N1) H275Y variant virus isolates (Influenza A virus, UniProt A8C8J7, H275Y); assay type: biochemical
[10] = target: neuraminidase of 2009 pandemic H1N1 H275Y variant virus isolates (Influenza A virus, UniProt C3W5S3, H275Y); assay type: biochemical, 2009 pandemic H1N1 influenza virus
[11] = target: neuraminidase of A/Thailand/1035/2008 (H1N1), H275Y and D151D/G (Influenza A virus, UniProt C7FPR4); assay type: biochemical
[12] = target: neuraminidase of A/Ontario/RV0442/2009, A(H3N2), D151V and V50M (Influenza A virus, UniProt X2GPU4, D151V/V50M); assay type: biochemical
[13] = target: neuraminidase of B/Texas/38/2008, D197E (Influenza B virus, UniProt C7F996); test: biochemical

## CCC(CC)[C@H](NC(C)=O)[C@@H]1[C@H](O)[C@@H](C(=O)O)C[C@H]1N=C(N)N [Peramivir, peramivir]
[1]
  Fold Difference (IC50 of mutant/IC50 of wildtype virus): 0.09±0.02 (1)
[2]
  Fold Difference (IC50 of mutant/IC50 of wildtype virus): 11.27±1.36 (134)
[2]; read-out: Mean IC50 ± SD
  IC50: 11.3 nM
[3]
  Fold Difference (IC50 of mutant/IC50 of wildtype virus): 0.12±0.02 (1)
[4]
  Fold Difference (IC50 of mutant/IC50 of wildtype virus): 0.14±0.02 (1)
[4]; read-out: Mean IC50 ± SD
  IC50: 0.14 nM
[5]
  Fold Difference (IC50 of mutant/IC50 of wildtype virus): 0.31±0.06 (1)
[6]
  Fold Difference (IC50 of mutant/IC50 of wildtype virus): 52.80±3.51 (176)
[6]; read-out: Mean IC50 ± SD
  IC50: 52.8 nM
[7]
  Fold Difference (IC50 of mutant/IC50 of wildtype virus): 0.06±0.02 (1)
[8]
  Fold Difference (IC50 of mutant/IC50 of wildtype virus): 10.06±0.01 (164)
[8]; read-out: Mean IC50 ± SD
  IC50: 10.1 nM
[9]
  fold, mean IC50 among H275Y variants over H275 wildtype viruses: ~300 fold
[9]; read-out: IC50 Mean (±SD)
  IC50: 30.6 ± 66.1 nM
[9]; read-out: IC50 Median
  IC50: 12.9 nM
[9]; read-out: IC50 Range
  IC50: 2.46 to 511 nM
[10]; read-out: IC50 Mean (±SD)
  IC50: 10.4 ± 1.37 nM
[10]; read-out: IC50 Median
  IC50: 10.3 nM
[10]; read-out: IC50 Range
  IC50: 8.1 to 12.9 nM
[11]; read-out: IC50
  IC50: 295 nM
[12]
  IC50: 7.48 nM

## CC(=O)N[C@H]1[C@H]([C@H](O)[C@H](O)CO)OC(C(=O)O)=C[C@@H]1N=C(N)N [Zanamivir, zanamivir]
[4]
  IC50: 0.51 nM
[11]
  IC50: 20.6 nM
[13]
  IC50: 10.3 nM
